Measured values reported in US5202315A, “Cephalosporin compounds” (Lucky, Ltd., priority 1989, dated 1993).
Converted amounts (≈) assume the structure as drawn.

Legend:
Assay type in all cases: cell-based
Escherichia coli = experiment: Antibacterial activity against clinically isolated strains, MIC; conditions: 38 clinical isolates, broth microdilution test
[1] = test system: Enterobacter aerogenes ATCC 29751; experiment: Antibacterial activity, MIC; conditions: Klebsiella aerogenes, ATCC29751; ATCC 29751; agar two-fold dilution, 37° C., 20 hours; read-out: MIC
Outline: (§1)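 Incubation at 37 °C for 20 h followed inoculation of 2 μl standard strain (10^7 CFU/ml) onto agar carrying the compound. Compound was incorporated into Mueller-Hinton agar as two-fold serial dilutions.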

[2] = test system: Escherichia coli ATCC 25922; experiment: Antibacterial activity, MIC; conditions: ATCC25922, agar two-fold dilution, 37° C., 20 hours
Outline: as §1

[3] = test system: Providencia rettgeri ATCC 9250; experiment: Antibacterial activity, MIC; conditions: ATCC9250, agar two-fold dilution, 37° C., 20 hours
Outline: as §1

[4] = test system: Streptococcus faecalis ATCC 29212; experiment: Antibacterial activity, MIC; conditions: Enterococcus faecalis, ATCC29212; ATCC 29212; agar two-fold dilution, 37° C., 20 hours; read-out: MIC
Outline: as §1

[5] = test system: Citrobacter freundii ATCC 8090; experiment: Antibacterial activity, MIC; conditions: ATCC8090, ATCC 8090, agar two-fold dilution, 37° C., 20 hours, read-out: MIC
Outline: as §1

[6] = test system: Staphylococcus aureus ATCC 6538p; experiment: Antibacterial activity, MIC; conditions: ATCC6538P, ATCC 6538p, agar two-fold dilution, 37° C., 20 hours, read-out: MIC
Outline: as §1

[7] = test system: Staphylococcus epidermidis ATCC 12228; experiment: Antibacterial activity, MIC; conditions: ATCC12228, ATCC 12228, agar two-fold dilution, 37° C., 20 hours, read-out: MIC
Outline: as §1

[8] = test system: Micrococcus luteus ATCC 9341; experiment: Antibacterial activity, MIC; conditions: ATCC9341, ATCC 9341, agar two-fold dilution, 37° C., 20 hours, read-out: MIC
Outline: as §1

[9] = test system: Shigella sonnei ATCC 11060; experiment: Antibacterial activity, MIC; conditions: ATCC11060, ATCC 11060, agar two-fold dilution, 37° C., 20 hours, read-out: MIC
Outline: as §1

[10] = test system: Bacillus megaterium ATCC 9885; experiment: Antibacterial activity, MIC; conditions: Priestia megaterium, ATCC9885; ATCC 9885; agar two-fold dilution, 37° C., 20 hours; read-out: MIC
Outline: as §1

[11] = test system: Morganella morganii ATCC 8076h; experiment: Antibacterial activity, MIC; conditions: ATCC8076H, agar two-fold dilution, 37° C., 20 hours
Outline: as §1

[12] = test system: Klebsiella pneumoniae ATCC 10031; experiment: Antibacterial activity, MIC; conditions: ATCC10031, ATCC 10031, agar two-fold dilution, 37° C., 20 hours, read-out: MIC
Outline: as §1

[13] = test system: Proteus mirabilis ATCC 25933; experiment: Antibacterial activity, MIC; conditions: ATCC25933, ATCC 25933, agar two-fold dilution, 37° C., 20 hours, read-out: MIC
Outline: as §1

[14] = test system: Salmonella typhimurium ATCC 14028; experiment: Antibacterial activity, MIC; conditions: Salmonella enterica; ATCC 14028; agar two-fold dilution, 37° C., 20 hours; read-out: MIC
Outline: as §1

[15] = test system: Pseudomonas aeruginosa ATCC 25619; experiment: Antibacterial activity, MIC; conditions: ATCC25619, ATCC 25619, agar two-fold dilution, 37° C., 20 hours, read-out: MIC
Outline: as §1

[16] = test system: Staphylococcus aureus ATCC 10537; experiment: Antibacterial activity, MIC; conditions: ATCC10537, ATCC 10537, agar two-fold dilution, 37° C., 20 hours, read-out: MIC
Outline: as §1

[17] = test system: Serratia marcescens ATCC 27117; experiment: Antibacterial activity, MIC; conditions: ATCC27117, ATCC 27117, agar two-fold dilution, 37° C., 20 hours, read-out: MIC
Outline: as §1

[18] = test system: Escherichia coli ATCC 10536; experiment: Antibacterial activity, MIC; conditions: ATCC10536, agar two-fold dilution, 37° C., 20 hours
Outline: as §1

[19] = test system: Enterobacter cloacae ATCC 27508; experiment: Antibacterial activity, MIC; conditions: ATCC27508, ATCC 27508, agar two-fold dilution, 37° C., 20 hours, read-out: MIC
Outline: as §1

[20] = test system: Acinetobacter calcoaceticus ATCC 15473; experiment: Antibacterial activity, MIC; conditions: ATCC15473, ATCC 15473, agar two-fold dilution, 37° C., 20 hours, read-out: MIC
Outline: as §1

[21] = test system: Pseudomonas aeruginosa ATCC 27853; experiment: Antibacterial activity, MIC; conditions: ATCC27853, ATCC 27853, agar two-fold dilution, 37° C., 20 hours, read-out: MIC
Outline: as §1

[22] = test system: Proteus vulgaris ATCC 6059; experiment: Antibacterial activity, MIC; conditions: ATCC6059, ATCC 6059, agar two-fold dilution, 37° C., 20 hours, read-out: MIC
Outline: as §1

[23] = test system: Bacillus cereus ATCC 11778; experiment: Antibacterial activity, MIC; conditions: ATCC11778, ATCC 11778, agar two-fold dilution, 37° C., 20 hours, read-out: MIC
Outline: as §1

[24] = test system: Shigella flexneri ATCC 11836; experiment: Antibacterial activity, MIC; conditions: ATCC11836, agar two-fold dilution, 37° C., 20 hours
Outline: as §1

[25] = test system: Pseudomonas aeruginosa ATCC 10145; experiment: Antibacterial activity, MIC; conditions: ATCC10145, ATCC 10145, agar two-fold dilution, 37° C., 20 hours, read-out: MIC
Outline: as §1

[26] = test system: Staphylococcus aureus methicillin resistant; experiment: Antibacterial activity against clinically isolated strains, MIC; conditions: methicillin resistant, 7 clinical isolates, broth microdilution test; for MIC90: read-out: MIC 90%
Pseudomonas aeruginosa = experiment: as above; conditions: 54 clinical isolates, broth microdilution test; for MIC90: read-out: MIC 90%
[27] = test system: Staphylococcus aureus methicillin susceptible; experiment: as above; conditions: methicillin susceptible, 42 clinical isolates, broth microdilution test; for MIC90: read-out: MIC 90%
Klebsiella pneumoniae = experiment: as above; conditions: 10 clinical isolates, broth microdilution test; for MIC90: read-out: MIC 90%

Compound | MIC50 (Escherichia coli) [µg/mL] | MIC90 (Escherichia coli) [µg/mL] | MIC [1] [µg/mL] | MIC [2] [µg/mL] | MIC [3] [µg/mL] | MIC [4] [µg/mL] | MIC [5] [µg/mL] | MIC [6] [µg/mL] | MIC [7] [µg/mL] | MIC [8] [µg/mL] | MIC [9] [µg/mL] | MIC [10] [µg/mL] | MIC [11] [µg/mL] | MIC [12] [µg/mL] | MIC [13] [µg/mL] | MIC [14] [µg/mL] | MIC [15] [µg/mL] | MIC [16] [µg/mL] | MIC [17] [µg/mL] | MIC [18] [µg/mL] | other results
CCO/N=C(\C(=O)NC1C(=O)N2C(C(=O)[O-])=C(CSc3nc(N)cc(N)[n+]3N)CSC12)c1nsc(N)n1 (stereo not shown) [Compound I-17] | 0.13 (≈ 0.229 µM) | 0.25 (≈ 0.44 µM) | 0.25 (≈ 0.44 µM) | 0.13 (≈ 0.229 µM) | ≤ 0.008 | 32 (≈ 56.4 µM) | 0.063 (≈ 0.111 µM) | 0.5 (≈ 0.881 µM) | 0.25 (≈ 0.44 µM) | 0.016 (≈ 0.0282 µM) | 0.13 (≈ 0.229 µM) | 0.13 (≈ 0.229 µM) | 0.016 (≈ 0.0282 µM) | 0.016 (≈ 0.0282 µM) | 0.5 (≈ 0.881 µM) | 0.5 (≈ 0.881 µM) | 0.5 (≈ 0.881 µM) | 0.5 (≈ 0.881 µM) | 0.25 (≈ 0.44 µM) | 0.13 (≈ 0.229 µM) | MIC [19]: 0.016 µg/mL (≈ 0.0282 µM); MIC [20]: 2 µg/mL (≈ 3.52 µM); MIC [21]: 2 µg/mL (≈ 3.52 µM); MIC [22]: 0.5 µg/mL (≈ 0.881 µM); MIC [23]: 8 µg/mL (≈ 14.1 µM); MIC [24]: 0.031 µg/mL (≈ 0.0546 µM); MIC [25]: 4 µg/mL (≈ 7.05 µM); MIC50 [26]: 16 µg/mL (≈ 28.2 µM); MIC90 [26]: 64 µg/mL (≈ 113 µM); MIC50 (Pseudomonas aeruginosa): 4 µg/mL (≈ 7.05 µM); MIC90 (Pseudomonas aeruginosa): 8 µg/mL (≈ 14.1 µM); MIC50 [27]: 0.5 µg/mL (≈ 0.881 µM); MIC90 [27]: 1 µg/mL (≈ 1.76 µM); MIC50 (Klebsiella pneumoniae): 0.25 µg/mL (≈ 0.44 µM); MIC90 (Klebsiella pneumoniae): 0.25 µg/mL (≈ 0.44 µM)
CC(O/N=C(\C(=O)NC1C(=O)N2C(C(=O)[O-])=C(CSc3nc(N)cc(N)[n+]3N)CSC12)c1csc(N)n1)C(=O)O (stereo not shown) [Compound I-14] | 0.031 (≈ 0.0508 µM) | 0.063 (≈ 0.103 µM) | 0.5 (≈ 0.819 µM) | 0.031 (≈ 0.0508 µM) | ≤ 0.008 | > 128 | 0.031 (≈ 0.0508 µM) | 4 (≈ 6.55 µM) | 1 (≈ 1.64 µM) | 0.5 (≈ 0.819 µM) | 0.016 (≈ 0.0262 µM) | 0.5 (≈ 0.819 µM) | ≤ 0.008 | 0.031 (≈ 0.0508 µM) | 0.031 (≈ 0.0508 µM) | 0.13 (≈ 0.213 µM) | 1 (≈ 1.64 µM) | 2 (≈ 3.28 µM) | 0.031 (≈ 0.0508 µM) | 0.031 (≈ 0.0508 µM) | MIC [19]: ≤ 0.008 µg/mL; MIC [20]: 2 µg/mL (≈ 3.28 µM); MIC [21]: 1 µg/mL (≈ 1.64 µM); MIC [22]: 0.031 µg/mL (≈ 0.0508 µM); MIC [23]: 64 µg/mL (≈ 105 µM); MIC [24]: 0.031 µg/mL (≈ 0.0508 µM); MIC [25]: 2 µg/mL (≈ 3.28 µM); MIC50 [26]: > 128 µg/mL; MIC90 [26]: > 128 µg/mL; MIC50 (Pseudomonas aeruginosa): 1 µg/mL (≈ 1.64 µM); MIC90 (Pseudomonas aeruginosa): 4 µg/mL (≈ 6.55 µM); MIC50 [27]: 4 µg/mL (≈ 6.55 µM); MIC90 [27]: 4 µg/mL (≈ 6.55 µM); MIC50 (Klebsiella pneumoniae): 0.031 µg/mL (≈ 0.0508 µM); MIC90 (Klebsiella pneumoniae): 0.063 µg/mL (≈ 0.103 µM)
